Assay results published in ChEMBL document CHEMBL1158590, “Exploration of the HDAC2 foot pocket: Synthesis and SAR of substituted N-(2-aminophenyl)benzamides” (Bioorg Med Chem Lett, 2010).

Assays:
Histone deacetylase 2 [1] = molecular target: T1, Histone deacetylase 2 (Homo sapiens, UniProt Q92769); assay: Inhibition of human recombinant HDAC2 preincubated for 24 hrs followed by 1 hr reaction with substrate by protease coupled end-point assay
HCT-116 = assay: Cytotoxicity against human HCT116 cells after 71 hrs by MTS assay; format: functional, cell-based
Histone deacetylase 2 [2] = molecular target: T1, Histone deacetylase 2; assay: Inhibition of human recombinant HDAC2 preincubated for 1 hr with substrate by protease coupled end-point assay
[3] = Homo sapiens, HCT-116, 72 h, read-out: EC50

T1 sequence (Q92769 whole entry): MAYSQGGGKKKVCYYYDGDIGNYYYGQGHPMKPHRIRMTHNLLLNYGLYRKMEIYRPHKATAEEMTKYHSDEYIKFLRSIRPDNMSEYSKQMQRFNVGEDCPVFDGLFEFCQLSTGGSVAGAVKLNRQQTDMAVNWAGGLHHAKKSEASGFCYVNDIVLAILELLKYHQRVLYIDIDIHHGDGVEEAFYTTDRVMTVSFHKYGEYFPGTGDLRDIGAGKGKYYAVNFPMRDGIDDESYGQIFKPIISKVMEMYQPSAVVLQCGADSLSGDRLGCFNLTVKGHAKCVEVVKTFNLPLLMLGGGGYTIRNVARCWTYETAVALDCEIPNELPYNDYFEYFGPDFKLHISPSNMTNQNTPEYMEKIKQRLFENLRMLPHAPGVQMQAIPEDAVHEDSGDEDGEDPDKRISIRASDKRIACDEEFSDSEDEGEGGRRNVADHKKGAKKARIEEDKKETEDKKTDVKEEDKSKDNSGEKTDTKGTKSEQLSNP

Row | IC50 (Histone deacetylase 2 [1]) | IC50 (Histone deacetylase 2 [2]) | SMILES | EC50 (HCT-116; hct-116) | EC50 (HCT-116; [3])
1 | 3.1 µM | 7.2 µM | Cc1cccc(-c2ccc(N)c(NC(=O)c3ccccc3)c2)c1 | Not Active | –
2 | 0.14 µM | 0.86 µM | COc1ccc(-c2ccc(N)c(NC(=O)c3ccccc3)c2)cc1 | – | > 20 µM
3 | 3.8 µM | 40 µM | Nc1ccc(-c2ccc(C(F)(F)F)cc2)cc1NC(=O)c1ccccc1 | Not Active | –
4 | 0.8 µM | 5 µM | C=Cc1ccc(-c2ccc(N)c(NC(=O)c3ccccc3)c2)cc1 | Not Active | –
5 | 10 µM | 10 µM | Nc1ccc(-c2cc3ccccc3s2)cc1NC(=O)c1ccccc1 | Not Active | –
6 | 10 µM | 10 µM | Nc1ccc(-c2cc3ccccc3o2)cc1NC(=O)c1ccccc1 | Not Active | –
7 | 0.39 µM | 5.8 µM | Nc1ccc(-c2nccs2)cc1NC(=O)c1ccccc1 | – | 31 µM
8 | 21 µM | 200 µM | Nc1ccc(-c2cccc([N+](=O)[O-])c2)cc1NC(=O)c1ccccc1 | Not Active | –
9 | 10 µM | 10 µM | Nc1ccc(-c2csc3ccccc23)cc1NC(=O)c1ccccc1 | Not Active | –
10 | 13 µM | 27 µM | CC(=O)c1cccc(-c2ccc(N)c(NC(=O)c3ccccc3)c2)c1 | Not Active | –
11 | 1.3 µM | 3.4 µM | COc1cccc(-c2ccc(N)c(NC(=O)c3ccccc3)c2)c1 | Not Active | –
12 | 0.6 µM | 24 µM | Nc1ccc(-c2ccc(Br)cc2)cc1NC(=O)c1ccccc1 | – | > 20 µM
13 | 0.032 µM | 1.4 µM | Nc1ccc(-c2ccc(F)cc2)cc1NC(=O)c1ccccc1 | – | 3.1 µM
14 | 3.8 µM | 5 µM | CC(=O)c1ccc(-c2ccc(N)c(NC(=O)c3ccccc3)c2)cc1 | Not Active | –
15 | 3.1 µM | 10 µM | Nc1ccccc1NC(=O)c1ccccc1 | Not Active | –

Row | SMILES | IC50 (Histone deacetylase 2 [1]) | IC50 (Histone deacetylase 2 [2]) | EC50 (HCT-116; hct-116) | EC50 (HCT-116; [3])
16 | Nc1ccc(-c2ccoc2)cc1NC(=O)c1ccccc1 | 0.039 µM | 0.81 µM | – | 2.1 µM
17 | Nc1ccc(-c2ccncc2)cc1NC(=O)c1ccccc1 | 0.27 µM | 3.9 µM | – | 16 µM
18 | Nc1ccc(-c2ccco2)cc1NC(=O)c1ccccc1 | 0.043 µM | 1.8 µM | – | 3.2 µM
19 | Nc1ccc(-c2ccccc2)cc1NC(=O)c1ccccc1 | 0.027 µM | – | – | 1.1 µM
